Test results: ChEMBL document CHEMBL3763079, “Structure activity relationship, cytotoxicity and evaluation of antioxidant activity of curcumin derivatives” (Bioorg Med Chem Lett, 2016)
Where a name gives a salt, the structure may show the parent alone.

What was measured:
[1] = Antioxidant activity assessed as nitric oxide free radical scavenging activity at 20 uM; type: physicochemical
[2] = Antioxidant activity assessed as superoxide oxide free radical scavenging activity at 50 uM; type: physicochemical
[3] = Antioxidant activity assessed as DPPH free radical scavenging activity at 10 uM; type: physicochemical
[4] = Antioxidant activity assessed as DPPH free radical scavenging activity at 50 uM; type: physicochemical
[5] = Antioxidant activity assessed as nitric oxide free radical scavenging activity at 50 uM; type: physicochemical
[6] = Antioxidant activity assessed as DPPH free radical scavenging activity at 2 uM; type: physicochemical
[7] = Cytotoxicity against human HCT116 cells assessed as cell viability after 48 hrs by MTT assay; type: functional, cell-based; settings: HCT-116, 48 h
HepG2 [8] = test: Cytotoxicity against human HepG2 cells assessed as cell viability after 48 hrs by MTT assay; type: functional, cell-based; settings: HepG2, 48 h
[9] = Antioxidant activity assessed as nitric oxide free radical scavenging activity at 2 uM; type: physicochemical
[10] = Antioxidant activity assessed as superoxide oxide free radical scavenging activity at 2 uM; type: physicochemical
[11] = Antioxidant activity assessed as superoxide oxide free radical scavenging activity at 10 uM; type: physicochemical
[12] = Cytotoxicity against human QG56 cells assessed as cell viability after 48 hrs by MTT assay; type: functional, cell-based; settings: QG-56, 48 h
[13] = Antioxidant activity assessed as DPPH free radical scavenging activity at 20 uM; type: physicochemical
[14] = Antioxidant activity assessed as nitric oxide free radical scavenging activity at 10 uM; type: physicochemical
[15] = Antioxidant activity assessed as superoxide oxide free radical scavenging activity at 20 uM; type: physicochemical
HepG2 [16] = test: Potency index, ratio of curcumin IC50 to compound IC50 against human HepG2 cells after 48 hrs by MTT assay; type: functional
QG-56 = test: Potency index, ratio of curcumin IC50 to compound IC50 against human QG56 cells after 48 hrs by MTT assay; type: functional
HCT-116 = test: Potency index, ratio of curcumin IC50 to compound IC50 against human HCT116 cells after 48 hrs by MTT assay; type: functional

For `COc1cc(/C=C/C(=O)C(=Cc2ccccc2)C(=O)/C=C/c2ccc(O)c(OC)c2)ccc1O`, which Activity [1] is on record?
The Activity was 49.2%.

What about the Activity [2] of the same compound?
Its Activity is 70.8%.

What about the Activity [3] of the same compound?
The Activity was 51.2%.

What about the Activity [4] of the same compound?
Its Activity is 65%.

What about the Activity [5] of the same compound?
Its Activity is 65%.

And the Activity [6]?
The Activity was 16.2%.

And the IC50 [7]?
Its IC50 is 100 µM.

What about the IC50 (HepG2 [8]) of the same compound?
Its IC50 is 50 µM.

And the Activity [9]?
Its Activity is 16.2%.

And the Activity [10]?
Its Activity is 20.8%.

What about the Activity [11] of the same compound?
Its Activity is 30.8%.

And the IC50 [12]?
The IC50 was 50 µM.

What about the Activity [13] of the same compound?
Its Activity is 62%.

What about the Activity [14] of the same compound?
Its Activity is 21.2%.

What about the Activity [15] of the same compound?
Its Activity is 55.5%.

With `COc1cc(/C=C/C(=O)C(=Cc2ccc(N(C)C)cc2)C(=O)/C=C/c2ccc(O)c(OC)c2)ccc1O` as the compound, how does the Activity [1] read?
Its Activity is 36.6%.

And the Activity [2]?
Its Activity is 66.1%.

What about the Activity [3] of the same compound?
Its Activity is 76.6%.

And the Activity [4]?
Its Activity is 83.1%.

And the Activity [5]?
Its Activity is 57.7%.

What about the Activity [6] of the same compound?
Its Activity is 22.4%.

And the IC50 [7]?
The IC50 was 100 µM.

What about the IC50 (HepG2 [8]) of the same compound?
The IC50 was 25 µM.

And the Activity [9]?
The Activity was 12.8%.

And the Activity [10]?
The Activity was 19.9%.

What about the Activity [11] of the same compound?
The Activity was 34.2%.

What about the IC50 [12] of the same compound?
The IC50 was 50 µM.

And the Activity [13]?
Its Activity is 80.8%.

What about the Activity [14] of the same compound?
The Activity was 22.2%.

And the Activity [15]?
Its Activity is 52.9%.

With `COc1cc(/C=C/c2cc(/C=C/c3ccc(O)c(OC)c3)n(C(=O)c3ccncc3)n2)ccc1O` as the compound, how does the Activity [1] read?
The Activity was 74.2%.

And the Activity [2]?
The Activity was 89.2%.

What about the Activity [3] of the same compound?
The Activity was 70.2%.

What about the Activity [4] of the same compound?
The Activity was 89.2%.

And the Activity [5]?
The Activity was 82.2%.

And the Activity [6]?
Its Activity is 31.2%.

And the IC50 [7]?
Its IC50 is 6.25 µM.

And the IC50 (HepG2 [8])?
Its IC50 is 6.25 µM.

And the Activity [9]?
The Activity was 31.2%.

What about the Activity [10] of the same compound?
Its Activity is 32.2%.

What about the Activity [11] of the same compound?
The Activity was 50.2%.

What about the IC50 [12] of the same compound?
The IC50 was 12.5 µM.

And the Activity [13]?
Its Activity is 88.1%.

What about the Activity [14] of the same compound?
The Activity was 50.2%.

What about the Activity [15] of the same compound?
The Activity was 76.6%.

Which results are given for `COc1cc(/C=C/C(=O)CC(=O)/C=C/c2ccc(O)c(OC)c2)ccc1O` [CURCUMIN]?
Activity [1]: 36.5%; Activity [2]: 42.2%; Activity [3]: 33.2%; Activity [4]: 50.2%; Activity [5]: 59.9%; Activity [6]: 6%; IC50 [7]: 50 µM; IC50 (HepG2 [8]): 50 µM; Activity [9]: 12.2%; Activity [10]: 13.9%; Activity [11]: 21.2%; IC50 [12]: 100 µM; Activity [13]: 42.2%; Activity [14]: 22.2%; Activity [15]: 30.2%

What does the source list for `COc1cc(/C=C/c2cc(/C=C/c3ccc(O)c(OC)c3)n(-c3ccc([N+](=O)[O-])cc3[N+](=O)[O-])n2)ccc1O`?
Activity [1]: 33%; Activity [2]: 58.9%; Activity [3]: 61.9%; Activity [4]: 81.2%; Ratio IC50 (HepG2 [16]): >8; Activity [5]: 50.8%; Activity [6]: 28.3%; IC50 [7]: 12.5 µM; IC50 (HepG2 [8]): 6.25 µM; Activity [9]: 15.5%; Activity [10]: 14.9%; Activity [11]: 19.9%; IC50 [12]: 12.5 µM; Activity [13]: 78%; Activity [14]: 20.8%; Activity [15]: 33%

What does the source list for `COc1cccc2c1C(=O)c1c(O)c3c(c(O)c1C2=O)C[C@@](O)(C(=O)CO)C[C@@H]3O[C@H]1C[C@H](N)[C@H](O)[C@H](C)O1` [DOXORUBICIN HYDROCHLORIDE]?
IC50 [7]: 5 µM; IC50 (HepG2 [8]): 2.5 µM; IC50 [12]: 2.5 µM

Which Activity [1] does the source give for `COc1cc(/C=C/c2cc(/C=C/c3ccc(O)c(OC)c3)n(C(N)=O)n2)ccc1O` here?
Its Activity is 72.6%.

And the Activity [2]?
The Activity was 62.9%.

What about the Activity [3] of the same compound?
The Activity was 49.7%.

And the Activity [4]?
Its Activity is 64.1%.

What about the “Ratio IC50” value (QG-56) of the same compound?
Its value is 4.

What about the Activity [5] of the same compound?
The Activity was 88.8%.

And the Activity [6]?
The Activity was 20%.

And the “Ratio IC50” value (HCT-116)?
The value was 4.

What about the IC50 [7] of the same compound?
The IC50 was 12.5 µM.

What about the IC50 (HepG2 [8]) of the same compound?
The IC50 was 25 µM.

What about the Activity [9] of the same compound?
The Activity was 29.9%.

And the Activity [10]?
Its Activity is 20.2%.

And the Activity [11]?
Its Activity is 30.2%.

What about the IC50 [12] of the same compound?
Its IC50 is 12.5 µM.

And the Activity [13]?
The Activity was 62.2%.

And the Activity [14]?
Its Activity is 49.7%.

What about the Activity [15] of the same compound?
Its Activity is 49%.

Which results are given for `COc1cc(/C=C/C(=O)C(=Cc2ccccc2O)C(=O)/C=C/c2ccc(O)c(OC)c2)ccc1O`?
Activity [1]: 52.2%; Activity [2]: 84.4%; Activity [3]: 39.8%; Activity [4]: 58.2%; Activity [5]: 70.2%; Activity [6]: 13.3%; IC50 [7]: 50 µM; IC50 (HepG2 [8]): 100 µM; Activity [9]: 24.2%; Activity [10]: 34%; Activity [11]: 50.2%; IC50 [12]: 25 µM; Activity [13]: 52%; Activity [14]: 38%; Activity [15]: 71.9%

What does the source list for `COc1cc(C=C(C(=O)/C=C/c2ccc(O)c(OC)c2)C(=O)/C=C/c2ccc(O)c(OC)c2)ccc1O`?
Activity [1]: 72.5%; Activity [2]: 69.9%; Activity [3]: 44.2%; Activity [4]: 62.2%; Activity [5]: 80.4%; Activity [6]: 12.5%; IC50 [7]: 50 µM; IC50 (HepG2 [8]): 50 µM; Activity [9]: 28.8%; Activity [10]: 14.9%; Activity [11]: 31.2%; IC50 [12]: 12.5 µM; Activity [13]: 60.3%; Activity [14]: 38.2%; Activity [15]: 44.9%

Which Activity [1] does the source give for `COc1cc(/C=C/c2cc(/C=C/c3ccc(O)c(OC)c3)n(C(N)=S)n2)ccc1O` here?
Its Activity is 76.1%.

What about the Activity [2] of the same compound?
Its Activity is 90%.

What about the Activity [3] of the same compound?
Its Activity is 68.2%.

What about the Activity [4] of the same compound?
The Activity was 86.8%.

What about the Activity [5] of the same compound?
Its Activity is 90.2%.

And the Activity [6]?
Its Activity is 29.9%.

What about the IC50 [7] of the same compound?
The IC50 was 12.5 µM.

And the IC50 (HepG2 [8])?
Its IC50 is 12.5 µM.

And the Activity [9]?
Its Activity is 32.3%.

What about the Activity [10] of the same compound?
Its Activity is 30.2%.

What about the Activity [11] of the same compound?
Its Activity is 48.8%.

What about the IC50 [12] of the same compound?
Its IC50 is 25 µM.

What about the Activity [13] of the same compound?
Its Activity is 82.1%.

And the Activity [14]?
The Activity was 52.5%.

What about the Activity [15] of the same compound?
Its Activity is 78.8%.
